# According to the supplement of paper PMC10307832:
# Key:
# Experiment in all cases: relative viability (nuclei count vs DMSO), 5 days (fraction); higher = more cells survive
# [1] = compound: Nc1ccn([C@@H]2O[C@H](CO)[C@@H](O)C2(F)F)c(=O)n1 [Gemcitabine] + O=C(CCCCCCC(=O)Nc1ccccc1)NO [Vorinostat] (partner 1 µM)
# Method in brief: (§1)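 Relative viability was taken as the ratio of nuclei in treated wells to nuclei in vehicle wells. Lung cancer cell lines in 1536-well plates received compounds by pin tool one day after seeding, either one drug alone or a fixed anchor-drug dose plus five library-drug doses (not always all listed) in √10 steps. Nuclei were counted on 4× images after 5 days of treatment, and values are medians of duplicate plates.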
# [2] = compound: Nc1ccn([C@@H]2O[C@H](CO)[C@@H](O)C2(F)F)c(=O)n1 [Gemcitabine] + NC(=O)Nc1cc(-c2cccc(F)c2)sc1C(=O)N[C@H]1CCCNC1 [AZD7762] (partner 0.2 µM)
# Method in brief: as §1
# [3] = compound: Nc1ccn([C@@H]2O[C@H](CO)[C@@H](O)C2(F)F)c(=O)n1 [Gemcitabine] + CC(=O)c1c(C)c2cnc(Nc3ccc(N4CCNCC4)cn3)nc2n(C2CCCC2)c1=O [Palbociclib] (partner 0.5 µM)
# Method in brief: as §1
# [4] = compound: Nc1ccn([C@@H]2O[C@H](CO)[C@@H](O)C2(F)F)c(=O)n1 [Gemcitabine] + C[C@@H](Oc1cc(-c2cnn(C3CCNCC3)c2)cnc1N)c1c(Cl)ccc(F)c1Cl [Crizotinib] (partner 1 µM)
# Method in brief: as §1
Cell Line,relative viability ([1]; first compound 0.001 µM),relative viability ([1]; first compound 0.003162 µM),relative viability ([1]; first compound 0.01 µM),relative viability ([1]; first compound 0.03162 µM),relative viability ([1]; first compound 0.1 µM),relative viability ([2]; first compound 0.001 µM),relative viability ([2]; first compound 0.003162 µM),relative viability ([2]; first compound 0.01 µM),relative viability ([2]; first compound 0.03162 µM),relative viability ([2]; first compound 0.1 µM),relative viability ([3]; first compound 0.001 µM),relative viability ([3]; first compound 0.003162 µM),relative viability ([3]; first compound 0.01 µM),relative viability ([3]; first compound 0.03162 µM),relative viability ([3]; first compound 0.1 µM),relative viability ([4]; first compound 0.001 µM),relative viability ([4]; first compound 0.003162 µM),relative viability ([4]; first compound 0.01 µM),relative viability ([4]; first compound 0.03162 µM),relative viability ([4]; first compound 0.1 µM)
HCC-366,0.361,0.458,0.134,0.0306,0.0198,0.27,0.16,0.0204,0.0203,0.0152,0.402,0.383,0.205,0.0402,0.026,0.629,0.588,0.0778,0.0184,0.0078
HCC-827,0.883,0.806,0.426,0.19,0.179,0.128,0.12,0.107,0.11,0.133,0.497,0.304,0.309,0.197,0.164,0.886,0.674,0.572,0.387,0.214
IA-LM,0.943,0.907,0.865,0.0796,0.0532,,,,,,,,,,,,0.615,0.254,0.0992,0.0456
NCI-H520,0.728,0.81,0.336,0.211,0.157,,,,,,0.237,0.23,0.174,0.164,0.146,0.915,0.769,0.465,0.156,0.108
NCI-H596,0.657,0.497,0.272,0.251,0.2,1.24,0.717,0.275,0.319,0.235,,,,,,1.04,1.02,0.531,0.391,0.345
NCI-H661,0.766,0.725,0.598,0.303,0.234,,,,,,0.394,0.409,0.411,0.241,0.237,1.09,0.983,0.856,0.333,0.285
NCI-H1299,,,,,,,,,,,,,,,,1.03,0.977,0.973,0.995,0.983
NCI-H1395,0.593,0.517,0.384,0.331,0.345,0.408,0.37,0.352,0.307,0.336,0.614,0.627,0.445,0.352,0.347,,,,,
NCI-H1563,,,,,,,,,,,,,,,,0.861,0.993,0.917,0.635,0.411
NCI-H1648,0.435,0.388,0.461,0.288,0.209,0.686,0.551,0.401,0.3,0.279,0.267,0.273,0.262,0.226,0.327,,,,,
NCI-H1650,0.55,0.33,0.34,0.21,0.127,,,,,,0.339,0.308,0.261,0.186,0.127,0.974,0.875,0.638,0.158,0.145
NCI-H1703,,,,,,0.118,0.104,0.105,0.0773,0.0798,,,,,,0.588,0.208,0.11,0.125,0.0932
NCI-H1792,,,,,,0.166,0.0355,0.0254,0.0229,0.033,0.699,0.596,0.395,0.254,0.194,1.05,0.897,0.222,0.0949,0.0981
NCI-H1793,0.985,0.62,0.152,0.148,0.106,0.778,0.211,0.0841,0.161,0.0995,0.297,0.3,0.267,0.167,0.145,,,,,
NCI-H2009,0.604,0.552,0.289,0.115,0.0881,,,,,,0.216,0.203,0.193,0.132,0.0838,1.18,0.841,0.227,0.102,0.0943
NCI-H2023,0.773,0.388,0.259,0.0711,0.061,,,,,,0.354,0.39,0.218,0.138,0.0722,0.702,0.633,0.504,0.095,0.0687
NCI-H2228,0.429,0.374,0.226,0.0768,0.217,,,,,,0.734,0.229,0.142,0.135,0.106,0.615,0.326,0.233,0.141,0.166
NCI-H2342,0.732,0.56,0.452,0.346,0.289,0.473,0.382,0.333,0.235,0.374,0.484,0.527,0.46,0.433,0.393,,,,,
SK-LU-1,0.753,0.339,0.267,0.251,0.252,,,,,,0.386,0.312,0.283,0.184,0.221,1.02,0.364,0.258,0.208,0.252
SK-MES-1,0.839,0.254,0.181,0.185,0.178,,,,,,0.257,0.274,0.229,0.223,0.225,0.923,0.809,0.221,0.179,0.164
SW 900,0.476,0.374,0.236,0.129,0.146,0.423,0.214,0.109,0.147,0.112,0.551,0.562,0.286,0.176,0.186,,,,,
SW 1573,0.75,0.591,0.122,0.0661,0.0393,,,,,,0.432,0.308,0.131,0.0954,0.0788,0.997,0.728,0.202,0.12,0.0565
UMC-11,0.339,0.505,0.425,0.256,0.152,,,,,,0.295,0.36,0.287,0.284,0.233,0.746,0.574,0.598,0.549,0.233
